Values belong to the compound of their own block, whether it stands above or below them.
How the values were obtained:
[1] = system: HIV-1 (IIIB) in MT-4 cells; experiment: HIV MT-4 antiviral assay; type: cell-based; conditions: Human immunodeficiency virus 1, MT4, 120 h, 5 days, Cell Titer Glo
Experimental: Example 47: HIV MT-4 Antiviral and Cytotoxicity Assay
Antiviral Assay in MT-4 Cells
(§1) Compounds were tested in a high-throughput 384-well assay format for their ability to inhibit the replication of HIV-1 (IIIB) in MT-4 cells. Compounds were serially diluted (1:3) in DMSO on 384-well polypropylene plates and further diluted 200-fold into complete RPMI media (10% FBS, 1% P/S) using the Biotek Micro Flow and Labcyte ECHO acoustic dispenser. Each plate contained up to 8 test compounds, with negative (No Drug Control) and 5 μM AZT positive controls. MT-4 cells were pre-infected with 10 μL of either RPMI (mock-infected) or a fresh 1:250 dilution of HIV-1 IIIB concentrated virus stock. Infected and uninfected MT-4 cells were further diluted in complete RPMI media and added to each plate using a Micro Flow dispenser. After 5 days incubation in a humidified and temperature controlled incubator (37° C.), Cell Titer Glo (Promega) was added to the assay plates and chemiluminescence read using an Envision plate-reader. EC50 values were defined as the compound concentration that causes a 50% decrease in luminescence signal, and were calculated using a sigmoidal dose-response model to generate curve fits.

[2] = Cytotoxicity assay in MT-4 cells; type: cell-based; conditions: human, uninfected MT-4 cells, Cell Titer Glo
Experimental: as §1, with “fits. Cytotoxicity Assay in MT-4 Cells Assays were performed as above except uninfected MT-4 cells were added to each well containing test compound. In addition, 10 μM puromycin was added to the last column of each assay plate to assess a base level of cytotoxicity.” for “fits.”

[3] = system: pLai RLuc reporter virus in MT-4 cells; experiment: HIV MT-4 serum shift antiviral reporter assay; type: cell-based; conditions: Human immunodeficiency virus 1, MT4, 72 h, read-out: RLUC CCM
Experimental: Example 48: HIV MT-4 Serum Shift Antiviral Reporter Assay
To quantify the amount of protein binding to human serum, compounds were serially diluted (1:3) in DMSO and acoustically transferred onto 384-well assay plates via a Labcyte ECHO robot. Each plate contained up to 8 test compounds, including negative and positive controls, (DMSO, 5 μM AZT respectively). Assay plates were prepared in duplicate, and tested in either CCM (cell culture media) or HS/CCM (human serum/cell culture media). MT-4 cells were first pre-infected with pLai RLuc reporter virus for 2 h at 37° C., then further diluted in either CCM (RPMI media, 10% FBS, 1% P/S) or HS/CCM (RPMI media, 10% FBS, 50% HS, 1% P/S), and subsequently added to each plate using a Biotek Micro Flow dispenser. After a 72-h incubation in a humidified and temperature controlled incubator (37° C.), Renilla Glo (Promega) was added to all assay plates and chemiluminescence read using an Envision plate-reader. EC50 values were defined as the compound concentration that causes a 50% decrease in luminescence signal, and were calculated using a sigmoidal dose-response model to generate curve fits. To determine the amount of protein binding, EC50 fold shifts (or EC50 shifts) were calculated by dividing EC50 (HS/CCM)/EC50 (CCM). […]

[4] = High throughput microsomal stability assay (human liver microsomes); type: in vitro ADME; conditions: for HLM stability: human liver microsomes, 1 uM compound, NADPH + UDPGA cofactors, 37 C
Experimental: Example 49: High Throughput Microsomal Stability Assay
Metabolic stability of compounds was assessed using Human, or Rat Liver Microsomal assays (Corning). In this assay, 10 nL compounds at concentration of 1 mM in 100% DMSO were dispensed into 384-well polypropylene plates using the Echo 550 acoustic liquid dispenser (Labcyte®). Each plate contained 384 wells with a single test compound in each well.
A solution of human (Corning® Gentest™ Human Mixed Pooled Microsomes), or rat (Corning® Gentest™ Rat [Sprague-Dawley] Pooled Liver Microsomes) liver microsomes at 2 mg/ml in 100 mM K2HPO4/KH2PO4 pH 7.4 with Alamethicin from Trichoderma viride (Sigma-Aldrich) 0.0225 mg/ml were incubated on ice for 15 minutes. 5 uL of this solution was added to individual wells following 15 minute incubation at room temperature; and supplemented with 5 uL NADPH Regenerating Solution of cofactors (Corning® Gentest™ UGT Reaction Mix) containing 100 mM K2HPO4/KH2PO4 pH 7.4, 2.6 mM NADP+, 6.6 mM glucose-6-phosphate, 6.6 mM MgCl2, 0.8 U/mL glucose-6-phosphate dehydrogenase, 0.1 mM Sodium Citrate, 6.8 mM uridine diphosphate-glucuronic acid. Final concentration of analyte compounds at the beginning of the reaction was 1 uM. The reactions were incubated at 37° C. and time points of 0, 5, 15, 30, 40, 50, 60, and 70 minutes were collected for further analysis. Background data were collected using reactions without analyte compounds.
Upon collection of the reaction time points, samples were quenched with 30 uL of a solution of 72% acetonitrile, 8% methanol, 0.1% formic acid, 19.9% water, and internal standard (IS). Reaction plates were span in a centrifuge at speed of 4,000 rcf for 30 minutes and 4° C., following a dilution of the 10 uL quenched reaction into 40 uL de-ionized water, yielding assay plates.
Assay plates were analyzed using solid-state extraction coupled with quadrupole time-of-flight mass spectrometer, using Agilent QToF 6530 RapidFire 360 system, with C4 type A solid state cartridges. Analysis was performed in either positive or negative ionization modes. Mobile phases contained 0.1% formic acid in water for loading analytes onto solid state extraction cartridges, and 0.1% formic acid in acetonitrile for elution into mass spectrometer in positive ionization mode, or 0.1% acetic acid in water for loading and 0.1% acetic acid in acetonitrile for extraction in negative ionization mode. Peak-area ratios of integrated counts for individual compounds to IS were plotted as semi-logarithmic chart of log vs time. Initial, linear portion of decay was fitted to a linear regression equation to derive half time of a compound decay.
Pharmacological parameters for an analyte compound metabolism were calculated using the following equations: […]
Where. Calculation of In Vitro Intrinsic Clearance
Concentration refers to the protein concentration (mg/mL) in the reaction.
Calculation of In Vivo Intrinsic Clearance
This scales the in vitro intrinsic clearance up to the value that would be predicted for the entire mass of liver tissue (but with no restriction by blood flow). The value depends upon the size of the liver (species-dependent) and the yield of microsomal protein as appropriate (assumed to be species-independent).
Calculation of Predicted Clearance
Hepatic clearance will depend upon the inter-relationship of intrinsic clearance and hepatic blood flow and can be predicted from in vitro data using a variety of approaches.
Calculation of Hepatic Extraction
This is simply the predicted clearance expressed as a proportion of hepatic blood flow. E=CL/QH*100%
Intrinsic clearance of the instant compounds, as well as for reference compounds A-F, were calculated following the procedure above.

Structure (SMILES): [2H][C@]1(OC)C=C[C@H](C)N2C[C@H]1n1cc(C(=O)NCc3ccc(F)cc3F)c(=O)c(O)c1C2=O [Example 21, (3S,6S,7R)—N-(2,4-difluorobenzyl)-12-hydroxy-6-methoxy-3-methyl-1,11-dioxo-1,6,7,11-tetrahydro-3H-2,7-methanopyrido[1,2-a][1,4]diazonine-6-d-10-carboxamide]
EC50 [1]: 1.8 nM
CC50 at 5 days [2]: 19300 nM
EC50 [3]: 0.52 nM
HLM stability [4]: 6.17 mL/min/kg

Structure (SMILES): C[C@H]1CC[C@@](C)(O)[C@H]2CN1C(=O)c1c(O)c(=O)c(C(=O)NCc3c(F)cc(F)cc3F)cn12 (single isomer, unassigned) [Example 32]
EC50 [1]: 1.9 nM
CC50 at 5 days [2]: 34600 nM
EC50 [3]: 0.43 nM
HLM stability [4]: 9 mL/min/kg

Structure (SMILES): CO[C@@H]1C=C[C@H](C)N2C[C@H]1n1cc(C(=O)NCc3ccc(F)c(Cl)c3F)c(=O)c(O)c1C2=O [Example 10, (3S,6R,7R)—N-(3-chloro-2,4-difluorobenzyl)-12-hydroxy-6-methoxy-3-methyl-1,11-dioxo-1,6,7,11-tetrahydro-3H-2,7-methanopyrido[1,2-a][1,4]diazonine-10-carboxamide]
EC50 [1]: 1.2 nM
CC50 at 5 days [2]: 4020 nM
EC50 [3]: 0.28 nM
HLM stability [4]: 6.67 mL/min/kg

Structure (SMILES): C[C@H]1CC[C@H](O)[C@H]2CN1C(=O)c1c(O)c(=O)c(C(=O)NCc3ccc(F)cc3F)cn12 [Example 16, (3S,6S,7R)—N-(2,4-difluorobenzyl)-6,12-dihydroxy-3-methyl-1,11-dioxo-1,4,5,6,7,11-hexahydro-3H-2,7-methanopyrido[1,2-a][1,4]diazonine-10-carboxamide]
EC50 [1]: 2.6 nM
CC50 at 5 days [2]: 41400 nM
EC50 [3]: 1.14 nM
HLM stability [4]: 1.83 mL/min/kg

HLM stability [4]: 2.67 mL/min/kg
Structure (SMILES): C[C@H]1C=C[C@H](O)[C@H]2CN1C(=O)c1c(O)c(=O)c(C(=O)NCc3c(F)cc(F)cc3F)cn12 [Example 14, (3S,6S,7R)-6,12-dihydroxy-3-methyl-1,11-dioxo-N-(2,4,6-trifluorobenzyl)-1,6,7,11-tetrahydro-3H-2,7-methanopyrido[1,2-a][1,4]diazonine-10-carboxamide]
EC50 [1]: 4.2 nM
CC50 at 5 days [2]: 50000 nM

Structure (SMILES): C[C@H]1CC[C@](C)(O)[C@H]2CN1C(=O)c1c(O)c(=O)c(C(=O)NCc3ccc(F)cc3F)cn12 (single isomer, unassigned) [Example 12]
EC50 [1]: 1.4 nM
CC50 at 5 days [2]: 41300 nM
EC50 [3]: 0.61 nM
HLM stability [4]: 2.5 mL/min/kg
MS Cl improvement ([4]; relative to compound F): 3.3 times relative to compound F

Structure (SMILES): CO[C@@H]1CC[C@H](C)N2C[C@H]1n1cc(C(=O)NCc3c(F)cc(F)cc3F)c(=O)c(O)c1C2=O [Example 6, (3S,6R,7R)-12-hydroxy-6-methoxy-3-methyl-1,11-dioxo-N-(2,4,6-trifluorobenzyl)-1,4,5,6,7,11-hexahydro-3H-2,7-methanopyrido[1,2-a][1,4]diazonine-10-carboxamide]
EC50 [1]: 1.4 nM
CC50 at 5 days [2]: 13000 nM
EC50 [3]: 0.5 nM
HLM stability [4]: 4.83 mL/min/kg
MS Cl improvement ([4]; relative to compound D): 2.3 times relative to compound D

HLM stability [4]: 11.5 mL/min/kg
Structure (SMILES): CO[C@@]1(C)C=C[C@H](C)N2C[C@H]1n1cc(C(=O)NCc3c(F)cc(F)cc3F)c(=O)c(O)c1C2=O (single isomer, unassigned) [Example 24]
EC50 [1]: 2.2 nM
CC50 at 5 days [2]: 11100 nM

HLM stability [4]: 1.83 mL/min/kg
Structure (SMILES): [2H]C([2H])([2H])[C@]1(O)C=C[C@H](C)N2C[C@H]1n1cc(C(=O)NCc3ccc(F)cc3F)c(=O)c(O)c1C2=O [Example 30, (1R,10S,13S)—N-[(2,4-difluorophenyl)methyl]-6,13-dihydroxy-10-methyl-5,8-dioxo-13-(trideuteriomethyl)-2,9-diazatricyclo[7.4.1.02,7]tetradeca-3,6,11-triene-4-carboxamide]
EC50 [1]: 2.1 nM
CC50 at 5 days [2]: 7480 nM

HLM stability [4]: 14 mL/min/kg
Structure (SMILES): C[C@H]1C=C[C@H](OC(F)F)[C@H]2CN1C(=O)c1c(O)c(=O)c(C(=O)NCc3c(F)cc(F)cc3F)cn12 [Example 22, (3S,6S,7R)-6-(difluoromethoxy)-12-hydroxy-3-methyl-1,11-dioxo-N-(2,4,6-trifluorobenzyl)-1,6,7,11-tetrahydro-3H-2,7-methanopyrido[1,2-a][1,4]diazonine-10-carboxamide]
EC50 [1]: 1.7 nM
CC50 at 5 days [2]: 8910 nM

HLM stability [4]: 1.83 mL/min/kg
Structure (SMILES): C[C@H]1C=C[C@H](O)[C@H]2CN1C(=O)c1c(O)c(=O)c(C(=O)NCc3ccc(F)cc3F)cn12 [Example 20, (3S,6S,7R)—N-(2,4-difluorobenzyl)-6,12-dihydroxy-3-methyl-1,11-dioxo-1,6,7,11-tetrahydro-3H-2,7-methanopyrido[1,2-a][1,4]diazonine-10-carboxamide]
EC50 [1]: 2.8 nM
CC50 at 5 days [2]: 30000 nM
